Reference: US7476741B2, “Substituted 4H-chromens, 2H-chromenes, chromans and analogs as activators of caspases and inducers of apoptosis and the use thereof” (Cytovia, Inc., priority 2002, dated 2009)

Experiments:
T-47D = assay: Caspase cascade activation assay (N-(Ac-DEVD)-N'-ethoxycarbonyl-R110 fluorogenic substrate) in T-47D cells; assay type: cell-based; details: T-47D human breast cancer cells, 24 h incubation; ratio of net RFU of compound to control
Method: (§1) Human breast cancer cell lines T-47D and ZR-75-1 were grown according to media component mixtures designated by American Type Culture Collection +10% FCS (Invitrogen Corporation), in a 5% CO2−95% humidity incubator at 37° C. T-47D and ZR-75-1 cells were maintained at a cell density between 30 and 80% confluency at a cell density of 0.1 to 0.6×10^6 cells/mL. Cells were harvested at 600×g and resuspended at 0.65×10^6 cells/mL into appropriate media +10% FCS. An aliquot of 45 μL of cells was added to a well of a 96-well microtiter plate containing 5 μL of a 10% DMSO in RPMI-1640 media solution containing 0.16 to 10 μM of 4-(3-bromo-4,5-dimethoxyphenyl)-3-cyano-4H-indolo[4,5-b]pyran (Example 1) or other test compound (0.016 to 1 μM final). An aliquot of 45 μL of cells was added to a well of a 96-well microtiter plate containing 5 μL of a 10% DMSO in RPMI-1640 media solution without test compound as the control sample. The samples were mixed by agitation and then incubated at 37° C. for 24 h in a 5% CO2-95% humidity incubator. After incubation, the samples were removed from the incubator and 50 μL of a solution containing 20 μM of N-(Ac-DEVD)-N′-ethoxycarbonyl-R110 (SEQ ID No.:1) fluorogenic substrate (Cytovia, Inc.; U.S. Pat. No. 6,335,429), 20% sucrose (Sigma), 20 mM DTT (Sigma), 200 mM NaCl (Sigma), 40 mM Na PIPES buffer pH 7.2 (Sigma), and 500 μg/mL lysolecithin (Calbiochem) was added. The samples were mixed by agitation and incubated at room temperature. Using a fluorescent plate reader (Model 1420 Wallac Instruments), an initial reading (T=0) was made approximately 1-2 min after addition of the substrate solution, employing excitation at 485 nm and emission at 530 nm, to determine the background fluorescence of the control sample. After the 3 h incubation, the samples were read for fluorescence as above (T=3 h).
(§2) The Relative Fluorescence Unit values (RFU) were used to calculate the sample readings as follows: RFU(T=3h)−Control RFU(T=0)=Net RFU(T=3h)
(§3) The activity of caspase cascade activation was determined by the ratio of the net RFU value for 4-(3-bromo-4,5-dimethoxyphenyl)-3-cyano-4H-indolo[4,5-b]pyran or other test compound to that of control samples. The EC50 (nM) was determined by a sigmoidal dose-response calculation (Prism 2.0, GraphPad Software Inc.).

ZR-75-1 = assay: Caspase cascade activation assay (N-(Ac-DEVD)-N'-ethoxycarbonyl-R110 fluorogenic substrate) in ZR-75-1 cells; assay type: cell-based; details: ZR-75-1 human breast cancer cells, 24 h incubation; sigmoidal dose-response; read-out: ZR-75-1 EC50 (nM) (potency)
Method: as §1, §2, §3

Row | EC50 (ZR-75-1) [nM] | Structure (SMILES) | T-47D Ratio (caspase activity) (T-47D)
1 | 573 | COc1ccc2c(c1)OC(=O)CC2c1cc(OC)c(OC)c(OC)c1 (stereo not shown) [Example 31, 7-Methoxy-4-(3,4,5-trimethoxyphenyl)-chroman-2-one] | 1.3
2 | 3080 | COc1ccc(C2CC(=O)Oc3c2cc(OC)c(OC)c3OC)cc1O (stereo not shown) [Example 32, 4-(3-Hydroxy-4-methoxyphenyl)-6,7,8-trimethoxy-chroman-2-one] | 4.4
